# Assay results reported in patent US20110177136A1, “METHOD AND PRODUCT” (priority 2008, published 2011).
# What was measured:
# [1] = 24 h
# physchem = details: 37 °C, water, thermodynamic from solid
# [2] = In vitro dissolution test in simulated gastric fluid (USP 24 type II apparatus); type: physicochemical; details: 900 ml SGF pH 2, 37±0.5° C., 100 rpm, equivalent to 200 mg carbamazepine
# Procedure: SGF was prepared with 2 g/L NaCl and 1 g/L Triton X-100, and acidified to pH 2 with HCl. Bath temperature was maintained at 37±0.5° C. and stirred at 100 rpm. Samples were collected at 15, 30 and 60 min and replaced with a fresh dissolution medium. After centrifugation, filtration through 0.45 μm membrane filter and suitable dilution, concentration of carbamazepine was determined spectrophotometrically at 320 nm.
structure (smiles),measurement,setting,value
"NC(=O)N1c2ccccc2C=Cc2ccccc21 [Carbamazepine, carbamazepine]",Saturation Solubility,[1],0.29 mg/mL
same,solubility at 24 h,physchem,290 µg/mL
same,Percentage of Carbamazepine released,"[2]; 15 min, listed as pure carbamazepine",43.48%
same,Percentage of Carbamazepine released,"[2]; 15 min, listed as pure drug",43.48 ± 2.23%
same,Percentage of Carbamazepine released,"[2]; 30 min, listed as pure carbamazepine",59.29%
same,Percentage of Carbamazepine released,"[2]; 30 min, listed as pure drug",59.29 ± 2.21%
same,Percentage of Carbamazepine released,"[2]; 60 min, listed as Pure carbamazepine",69.11%
same,Percentage of Carbamazepine released,"[2]; 60 min, listed as pure drug",69.11 ± 2.24%
